Molecules are shown by their SMILES. ≈ marks a conversion by molar mass, not a printed value. Some results are limits rather than exact numbers.

In this assay the test system is Clostridium difficile (Isolate ID ATCC 9689). The assay is described as follows: Bacterial Assay: Determination of Antibacterial Activity (MIC, broth microdilution or agar dilution). The assay is classed as cell-based. The settings on record: Clostridioides difficile, ATCC9689, 48 h, read-out: C. difficile MIC Activity Range. The method, then: Bacterial Assay: Determination of Antibacterial Activity Compounds of the invention were tested for antimicrobial activity by susceptibility testing in liquid or on solid media. Minimum inhibitory concentrations (MICs) for compounds against each strain were determined by the broth microdilution or agar dilution method according to the guidelines of the Clinical Laboratories and Standards Institute, formerly the National Committee for Clinical Laboratory Standards (Clinical Laboratories and Standards Institute. Methods for Dilution Antimicrobial Susceptibility Tests for Bacteria That Grow Anaerobically; Approved Standard-Seventh Edition. Document M11-A7, CLSI, Wayne, Pa., 2007, Clinical Laboratories and Standards Institute). Briefly MICs were determined by visible inspection after 48 hours of growth in the presence of compounds, cultures were grown at 37° C. in anaerobic gas packs using reinforced clostridial medium supplemented with 0.1% defribrinated horse blood. The bacterial strains tested include C. difficile (Clostridium difficile (Isolate ID ATCC 9689)) (Table 2) and two drug resistant clinical isolates (Clostridium difficile (Isolate ID BI-9) and Clostridium difficile (Isolate ID 027-01) (Table 3).
MICs were determined to be within the activity ranges “A” activity≦1.01 μg/mL; “B” activity>1.0 μg/mL-4.0 μg/mL; “C” activity>4.0 μg/mL-16 μg/mL
On to `CN(CCNC(=O)OCC(Oc1ccc(F)c(C(N)=O)c1F)c1nc(-c2ccc(C(F)(F)F)cc2)c(Br)o1)C(=O)OC(C)(C)C` (stereo not drawn) [Compound 56, tert-butyl [2-({[2-{5-bromo-4-[4-(trifluoromethyl)phenyl]-1,3-oxazol-2-yl}-2-(3-carbamoyl-2,4-difluorophenoxy)ethoxy]carbonyl}amino)ethyl]methyl carbamate (non-preferred name)], for which the MIC fell in the range of 1 to 4 µg/mL (≈ 1.41 to 5.65 µM). Under `CC(C)(C)c1ccc(OCCCCOc2ccc(F)c(C(N)=O)c2F)cc1` [Compound 175, 3-[4-(4-tert-butylphenoxy)butoxy]-2,6-difluorobenzamide] stands under 1.01 µg/mL; under `COc1ccc(C#Cc2csc(COc3ccc(F)c(C(N)=O)c3F)n2)cc1` [Compound 197, 2,6-difluoro-3-({4-[(4-methoxyphenyl)ethynyl]-1,3-thiazol-2-yl}methoxy)benzamide], under 1.01 µg/mL. Turning to `Cc1cc(CNC(=O)OCC(Oc2ccc(F)c(C(N)=O)c2F)c2nc(-c3ccc(C(F)(F)F)cc3)c(Br)o2)n(C)n1` (stereo not drawn) [Compound 87, 2-{5-bromo-4-[4-(trifluoromethyl)phenyl]-1,3-oxazol-2-yl}-2-(3-carbamoyl-2,4-difluorophenoxy)ethyl [(1,3-dimethyl-1H-pyrazol-5-yl)methyl]carbamate], the minimal inhibitory concentration (MIC) was in the range of 1 to 4 µg/mL (≈ 1.52 to 6.08 µM).

As for `NC(=O)c1c(F)ccc(OCc2cnn(-c3ccc(Cl)cc3)n2)c1F` [Compound 202, 3-{[2-(4-chlorophenyl)-2H-1,2,3-triazol-4-yl]methoxy}-2,6-difluorobenzamide], the MIC was in the range of 1 to 4 µg/mL (≈ 2.74 to 11 µM). Turning to `CC(Oc1ccc(F)c(C(N)=O)c1F)c1nc(-c2ccc(C(F)(F)F)cc2)c(Br)o1` (stereo not drawn) [Compound 29, 3-(1-{5-bromo-4-[4-(trifluoromethyl)phenyl]-1,3-oxazol-2-yl}ethoxy)-2,6-difluorobenzamide], the MIC is under 1.01 µg/mL. Consider `COc1cc(-c2csc(COc3ccc(F)c(C(N)=O)c3F)n2)ccc1Cl` [Compound 195, 3-{[4-(4-chloro-3-methoxyphenyl)-1,3-thiazol-2-yl]methoxy}-2,6-difluorobenzamide], for which the MIC was in the range of 4 to 16 µg/mL (≈ 9.74 to 38.9 µM).

Take `NC(=O)c1c(F)ccc(OCCCCOc2ccc(Br)cc2)c1F` [Compound 176, 3-[4-(4-bromophenoxy)butoxy]-2,6-difluorobenzamide]: the MIC was under 1.01 µg/mL. As for `NC(=O)c1c(F)ccc(OCCCc2nc(-c3ccc(C(F)(F)F)cc3)cs2)c1F` [Compound 113, 2,6-difluoro-3-(3-{4-[4-(trifluoromethyl)phenyl]-1,3-thiazol-2-yl}propoxy)benzamide], the MIC was 1 to 4 µg/mL (≈ 2.26 to 9.04 µM). Regarding `CNCC(=O)OCC(Oc1ccc(F)c(C(N)=O)c1F)c1nc(-c2ccc(C(F)(F)F)cc2)c(Br)o1` (stereo not drawn) [Compound 39, 2-{5-bromo-4-[4-(trifluoromethyl)phenyl]-1,3-oxazol-2-yl}-2-(3-carbamoyl-2,4-difluorophenoxy)ethyl N-methylglycinate], the MIC was under 1.01 µg/mL. With `NC(=O)c1c(F)ccc(OCc2nc(-c3ccc(Cl)cc3)no2)c1F` [Compound 13, 3-{[3-(4-chlorophenyl)-1,2,4-oxadiazol-5-yl]methoxy}-2,6-difluorobenzamide], the MIC lay in the range of 1 to 4 µg/mL (≈ 2.73 to 10.9 µM). Take `CNCNC(=O)c1c(F)ccc(OCc2nc3cc(Cl)cnc3s2)c1F` [Compound 103]: the MIC lay within 4 to 16 µg/mL (≈ 10 to 40.1 µM). Under `NC(=O)c1c(F)ccc(N(CCCCOc2ccc(OC(F)(F)F)cc2)CC(=O)O)c1F` [Compound 187, N-(3-carbamoyl-2,4-difluorophenyl)-N-{4-[4-(trifluoromethoxy)phenoxy]butyl}glycine] stands 4 to 16 µg/mL (≈ 8.65 to 34.6 µM); under `CCOC(=O)c1cc(Cl)ccc1-c1csc(COc2ccc(F)c(C(N)=O)c2F)n1` [Compound 190, ethyl 2-{2-[(3-carbamoyl-2,4-difluorophenoxy)methyl]-1,3-thiazol-4-yl}-5-chlorobenzoate], 4 to 16 µg/mL (≈ 8.83 to 35.3 µM).

For the compound `NC(=O)c1c(F)ccc(OCCOCCOc2ccc(OC(F)(F)F)cc2)c1F` [Compound 145, 2,6-difluoro-3-(2-{2-[4-(trifluoromethoxy)phenoxy]ethoxy}ethoxy) benzamide], the MIC is under 1.01 µg/mL. Consider `Cc1ccc(CNC(=O)OCC(Oc2ccc(F)c(C(N)=O)c2F)c2nc(-c3ccc(C(F)(F)F)cc3)c(Br)o2)n1C` (stereo not drawn) [Compound 86, 2-{5-bromo-4-[4-(trifluoromethyl)phenyl]-1,3-oxazol-2-yl}-2-(3-carbamoyl-2,4-difluorophenoxy)ethyl [(1,5-dimethyl-1H-pyrrol-2-yl)methyl]carbamate], for which the MIC was in the range of 1 to 4 µg/mL (≈ 1.52 to 6.08 µM). Take `COc1ccc(-c2nc(COc3ccc(F)c(C(N)=O)c3F)oc2Br)cc1` [Compound 22, 3-{[5-bromo-4-(4-methoxyphenyl)-1,3-oxazo1-2-yl]methoxy}-2,6-difluorobenzamide]: the MIC is under 1.01 µg/mL.

For `Cc1cnccc1CNC(=O)OCC(Oc1ccc(F)c(C(N)=O)c1F)c1nc(-c2ccc(C(F)(F)F)cc2)c(Br)o1` (stereo not drawn) [Compound 91, 2-{5-bromo-4-[4-(trifluoromethyl)phenyl]1,3-oxazol-2-yl}-2-(3-carbamoyl-2,4-difluorophenoxy)ethyl [(3-methylpyridin-4-yl)methyl]carbamate], the MIC was under 1.01 µg/mL.

On to `COC(=O)NCC(Oc1ccc(F)c(C(N)=O)c1F)c1nc(-c2ccc(C(F)(F)F)cc2)c(Br)o1` (racemic) [Compound 94, methyl [2-{5-bromo-4-[4-(trifluoromethyl)phenyl]-1,3-oxazol-2-yl}-2-(3-carbamoyl-2,4-difluorophenoxy)ethyl]carbamate], for which the MIC lay within 1 to 4 µg/mL (≈ 1.77 to 7.09 µM).

Consider `Cc1ncccc1CNC(=O)OCC(Oc1ccc(F)c(C(N)=O)c1F)c1nc(-c2ccc(C(F)(F)F)cc2)c(Br)o1` (stereo not drawn) [Compound 90, 2-{5-bromo-4-[4-(trifluoromethyl)phenyl]-1,3-oxazol-2-yl}-2-(3-carbamoyl-2,4-difluorophenoxy)ethyl [(2-methylpyridin-3-yl)methyl]carbamate], for which the MIC is under 1.01 µg/mL.

Take `NC(=O)c1c(F)ccc(OCc2nc(CCc3cccc(Cl)c3)cs2)c1F` [Compound 199, 3-({4-[2-(3-chlorophenyl)ethyl]-1,3-thiazol-2-yl}methoxy)-2,6-difluorobenzamide]: the MIC is under 1.01 µg/mL. Under `NC(=O)c1c(F)ccc(OCc2nc(-c3ccc(Cl)nc3)cs2)c1F` [Compound 201, 3-{[4-(6-chloropyridin-3-yl)-1,3-thiazol-2-yl]methoxy}-2,6-difluorobenzamide] stands 1 to 4 µg/mL (≈ 2.62 to 10.5 µM); under `CCCCCCCCCOc1ccc(F)c(C(N)=O)c1Cl` [Compound 5, 2-chloro-6-fluoro-3-(nonyloxy)benzamide], under 1.01 µg/mL; under `Cc1nn(C)cc1CNC(=O)OCC(Oc1ccc(F)c(C(N)=O)c1F)c1nc(-c2ccc(C(F)(F)F)cc2)c(Br)o1` (stereo not drawn) [Compound 81, 2-{5-bromo-4-[4-(trifluoromethyl)phenyl]-1,3-oxazol-2-yl}-2-(3-carbamoyl-2,4-difluorophenoxy)ethyl [(1,3-dimethyl-1H-pyrazol-4-yl)methyl]carbamate], under 1.01 µg/mL. For the compound `NC(=O)c1c(F)ccc(OCCCCOc2ccc(F)cc2F)c1F` [Compound 162, 3-[4-(2,4-difluorophenoxy)butoxy]-2,6-difluorobenzamide], the MIC is 1 to 4 µg/mL (≈ 2.8 to 11.2 µM). To `COc1ccc(-c2nc(COc3ccc(F)c(C(N)=O)c3F)sc2-c2cccc(Cl)c2O)cc1` [Compound 191, 3-{[5-(3-chloro-2-hydroxyphenyl)-4-(4-methoxyphenyl)-1,3-thiazol-2-yl]methoxy}-2,6-difluorobenzamide] belongs 4 to 16 µg/mL (≈ 7.95 to 31.8 µM); to `NC(=O)c1c(F)ccc(SCCCCOc2ccc(OC(F)(F)F)cc2)c1F` [Compound 157, 2,6-difluoro-3-({4-[4-(trifluoromethoxy)phenoxy]butyl}thio)benzamide], 1 to 4 µg/mL (≈ 2.37 to 9.49 µM); to `CN(Cc1ccncn1)C(=O)OCC(Oc1ccc(F)c(C(N)=O)c1F)c1nc(-c2ccc(C(F)(F)F)cc2)c(Br)o1` (stereo not drawn) [Compound 75, 2-{5-bromo-4-[4-(trifluoromethyl)phenyl]-1,3-oxazol-2-yl}-2-(3-carbamoyl-2,4-difluorophenoxy)ethyl methyl(pyrimidin-4-ylmethyl)carbamate], 1 to 4 µg/mL (≈ 1.52 to 6.09 µM). To `NC(=O)c1c(F)ccc(OCCCCOc2ccc(C(F)(F)F)cn2)c1F` [Compound 141, 2,6-difluoro-3-(4-{[5-(trifluoromethyl)pyridin-2-yl]oxy}butoxy)benzamide] belongs under 1.01 µg/mL; to `COC(=O)CCNC(=O)OCC(Oc1ccc(F)c(C(N)=O)c1F)c1nc(-c2ccc(C(F)(F)F)cc2)c(Br)o1` (stereo not drawn) [Compound 54, methyl N-{[2-{5-bromo-4-[4-(trifluoromethyl)phenyl]-1,3-oxazol-2-yl}-2-(3-carbamoyl-2,4-difluorophenoxy)ethoxy]carbonyl}-beta-alaninate], 1 to 4 µg/mL (≈ 1.57 to 6.29 µM).

Consider `Cc1ccc(CN(CCCCOc2ccc(OC(F)(F)F)cc2)c2ccc(F)c(C(N)=O)c2F)cn1` [Compound 185, 2,6-difluoro-3-([(6-methylpyridin-3-yl)methyl]{4-[4-(trifluoromethoxy)phenoxy]butyl}amino)benzamide], for which the MIC lay within 4 to 16 µg/mL (≈ 7.85 to 31.4 µM). Turning to `NC(=O)c1c(F)ccc(OCCc2nc(-c3ccc(OC(F)(F)F)cc3)no2)c1F` [Compound 117, 2,6-difluoro-3-(2-{3-[4-(trifluoromethoxy)phenyl]-1,2,4-oxadiazol-5-yl}ethoxy)benzamide], the MIC was under 1.01 µg/mL. On to `NC(=O)c1c(F)ccc(OCc2nc(-c3ccc(Cl)cc3)c(-c3cccc(O)c3)o2)c1F` [Compound 210, 3-{[4-(4-chlorophenyl)-5-(3-hydroxyphenyl)-1,3-oxazol-2-yl]methoxy}-2,6-difluorobenzamide], for which the MIC lay within 4 to 16 µg/mL (≈ 8.76 to 35 µM).

As usually defined, the MIC is the lowest concentration found to suppress growth.

The values above are taken from patent publication US20170305943A1, “COMPOUNDS FOR THE TREATMENT OF BACTERIAL INFECTIONS” (priority 2014, published 2017).
